Earlier results as cited in patent publication US20100279974A1, “Nucleosides With Non-Natural Bases as Anti-Viral Agents” (priority 2005, published 2010).

Details: in vivo

Row | SMILES | antiviral activity
1 | NC(=O)c1nccn(C2OC(COP(=O)(O)OP(=O)(O)OP(=O)(O)O)C(O)C2O)c1=O (centres unmarked) | exhibits antiviral activity in vivo
2 | NC(=O)c1nccn([C@@H]2O[C@H](CO)[C@@H](O)[C@H]2O)c1=O [non-phosphorylated nucleoside form] | appears to be inactive
